# Results published in ChEMBL document CHEMBL5726139, “Heterocyclic compounds and methods of their use” (2017).
# Biological target: T1, Type-2 angiotensin II receptor (Homo sapiens, UniProt P50052)
# T1 sequence (P50052 whole entry): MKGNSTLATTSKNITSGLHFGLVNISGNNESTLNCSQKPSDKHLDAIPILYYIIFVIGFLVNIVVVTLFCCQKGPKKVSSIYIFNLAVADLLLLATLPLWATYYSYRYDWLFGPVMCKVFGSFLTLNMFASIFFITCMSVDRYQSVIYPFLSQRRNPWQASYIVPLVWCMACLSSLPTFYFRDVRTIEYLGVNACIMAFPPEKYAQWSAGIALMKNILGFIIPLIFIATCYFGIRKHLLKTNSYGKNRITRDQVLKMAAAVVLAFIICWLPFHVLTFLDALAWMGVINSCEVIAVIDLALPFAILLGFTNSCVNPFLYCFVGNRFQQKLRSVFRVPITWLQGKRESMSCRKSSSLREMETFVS
# Experiment: Receptor Binding Assay: 120 μL membrane ([…]) was incubated with 15 μL of [125I]-CGP42112A and 15 μL of compound at RT for 1.5 hrs. The binding reaction was stopped by rapid filtration through Unifilter GF/C plates (presoaked in 0.3% (v:v) BSA). Plate was washed three times with ice cold wash buffer. The filtration plates were dried at 37° C. overnight. 50 μL of scintillation cocktail was added to each well. Radioactivity was determined using MicroBetaTriluxmicroplate scintillation counter.
row,SMILES,IC50 [nM]
1,CC(=O)N(CCCc1ccccc1)[C@H]1C[C@@H](C(=O)O)N(C(=O)C(c2ccccc2)c2ccccc2)C1,240
2,CN(CCc1ccccc1)[C@H]1C[C@@H](C(=O)O)N(C(=O)C(c2ccccc2)c2ccccc2)C1,384
3,O=C(C(c1ccccc1)c1ccccc1)N1C[C@H](OCCCc2ccccc2)[C@H]1CO,2050
4,O=C(C(c1ccccc1)c1ccccc1)N1C[C@@H](OCCCc2ccccc2)[C@H]1CO,650
5,O=C(O)[C@@H]1C[C@H](NC(=O)N(c2ccccc2)c2ccccc2)CN1C(=O)C(c1ccccc1)c1ccccc1,3360
6,CN(CCCc1ccc(F)cc1)[C@H]1C[C@@H](c2nnn[nH]2)N(C(=O)C(c2ccccc2)c2ccccc2)C1,3.52
